EP4702986A1, “POLYPEPTIDE AND USE THEREOF” (Biocells (Beijing) Biotech Co., Ltd., priority 2023, dated 2024)
“Also recorded” adds a separate entry of the source. Like-named read-outs stand apart in the source and are kept apart here. Numbered stars: 1 amine (or outer) side, 2 acyl side, 3 side chain; on linkers, the order of the positions; unused ones are H or OH. Side chains are listed from the residue outwards. Ends that are not written are not given here. Peptide text beside a SMILES is read from it. * marks the point of attachment. C18 diacid = O=C(O)CCCCCCCCCCCCCCCCC(=O)*; γGlu = O=C(O)[C@H](CCC(=O)[*:2])N[*:1]; Fumaroyl = O=C(O)/C=C/C(=O)*; Suc = O=C(CCC(=O)[*:2])[*:1]; Lauroyl = CCCCCCCCCCCC(=O)*; AEEA = NCCOCCOCC(=O)O

How the values were obtained:
human ETB receptor = biological target: T1, human ETB receptor (Homo sapiens, UniProt P24530); test: Screening of polypeptides for activity on human ETB receptor (IP-One Gq kit, % of positive control IRL1620); assay type: cell-based
T1 construct: expressed in transfected cells; host or cells: 293T-17 cells, transient transfection
T1 sequence (P24530 27-442): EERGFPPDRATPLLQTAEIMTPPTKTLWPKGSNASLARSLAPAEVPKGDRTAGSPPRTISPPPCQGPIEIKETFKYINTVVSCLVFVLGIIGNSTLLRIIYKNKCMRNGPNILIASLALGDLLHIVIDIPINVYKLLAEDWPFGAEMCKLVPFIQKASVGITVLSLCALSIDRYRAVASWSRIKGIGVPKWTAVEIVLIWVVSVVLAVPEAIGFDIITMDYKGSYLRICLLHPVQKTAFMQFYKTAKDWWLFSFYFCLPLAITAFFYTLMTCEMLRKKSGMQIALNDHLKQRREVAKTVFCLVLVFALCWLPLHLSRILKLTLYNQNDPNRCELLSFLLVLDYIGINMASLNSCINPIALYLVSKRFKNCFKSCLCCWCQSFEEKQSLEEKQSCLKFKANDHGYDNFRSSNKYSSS
Description: 293T-17 cells were seeded at a density of 650,000 cells per well in a 6-well plate and cultured overnight in an incubator at 37°C and 5% CO2. Afterward, the cells were transfected with an expression vector, PCDNA3.1-hETB which contained a human ETB receptor gene, at a plasmid concentration of 2.5 µg per well. The cells were further cultured for 48 hours, and green fluorescence expression was observed under a fluorescence microscope. The cells were then digested with trypsin and counted. The activity of compounds on the human ETB receptor was determined with the IP-One Gq kit from Cisbio Bioassays. The cells were suspended in Stim Buffer provided in the kit and the cell suspension was added to a 96-well detection plate at 7 µL cell suspension (containing 30,000 cells) per well. The polypeptides to be screened for activity (prepared according to the Preparation Example of the invention) and polypeptide IRL1620 as positive control were dissolved in Stim B to be at a concentration of 2×, and 7 µL was added to the test cells, while 7 µL of PBS solution was added to the cells in the negative control wells. IRL1620 was used as the positive control polypeptide. The plate was sealed and incubated at 37°C for 1 hour in a cell culture incubator. Test wells, positive control wells, and PBS control wells were each added with 3 µL of IP1 d2 working solution and 3 µL of IP1 Tb cryptotate Antibody working solution. The plate was then sealed and incubated in the dark at room temperature (25°C±5°C) for 1 hour. The plate seal was removed, and the […] at 665 nm and 620 nm was measured with an ID5 microplate reader. The ratio of the acceptor emission signal to the donor emission signal, i.e., the value of (signal at 665 nm/signal at 620 nm)×10^4, was calculated for each well. With F1 representing the average value of values of signal at 665 nm/signal at 620 nm determined for the test sample at a specific concentration, F2 representing the average value of values of signal at 665 nm/signal at 620 nm determined for the positive control IRL1620 at the same concentration, and T1 representing the average value of values of signal at 665 nm/signal at 620 nm determined for the PBS negative control, the percentage of activity of the test polypeptide sample relative to the positive control sample IRL1620 is equal to (F1-T1)×100/(F2-T1). hETB sequence (NCBI accession number NM_000115.5).

rat model of pMACO = test: Foot fault test in rat model of pMACO; assay type: in vivo, SD rats; settings: for Foot fault Analysis Mean of 7D: percentage of foot faults at 7D; for Foot fault Analysis Mean of 7D / Foot fault Analysis Mean of 24h: IRL1620 5 µg/Kg, administered 3 times (2, 4, 6 hours after modeling); for Foot fault Analysis Mean of 7D / Foot fault Analysis Mean of 24h / Foot fault Analysis Mean of Pretest: BX34 7 µg/Kg, BX48 5 µg/Kg; for Foot fault Analysis Mean of 24h: percentage of foot faults at 24h; for Foot fault Analysis Mean of Pretest: percentage of foot faults, pretest (baseline before administration), groups IRL1620 5 µg/Kg, 3 times
Text: Male SD rats weighing 280-300 g were used and acclimated for at least 3 days. Focal cerebral ischemia was induced by middle cerebral artery occlusion with a suture method under isoflurane anesthesia. The animals were placed in a secure supine position, and a midline incision was made to expose the right common carotid artery, external carotid artery, and internal carotid artery. A 4.0 monofilament nylon suture was advanced from the external carotid artery toward the internal carotid artery lumen until resistance was felt ( ~ 20 mm), indicating middle cerebral artery occlusion. The nylon filament was allowed to stay in place to create a permanent model of focal cerebral ischemia. Successfully modeled rats were randomly assigned to four groups: a solvent (normal saline) group (n=10), a 7 µg/Kg BX-34 group (n=10), a 5 µg/Kg BX-48 group (n=10), and a 5 µg/Kg IRL1620 group (n=10). Each group was administered once at 2 hours, 4 hours, and 6 hours, respectively, after modeling, for a total of three administrations. Grip strength was measured before administration and at 24 hours and on D3 and D7 after administration. A rotarod test and a foot fault test were performed before administration and at 24 hours and day 7 after administration. During the rotarod test, time and distance were recorded, and ratios of the measurement at 24 hours and the measurement at D7 to the pretest measurement were used as analysis indicators. The specific method for the foot fault test was as follows. The rats were placed on an elevated grid floor (29×29 cm, grid opening: 3 cm^2) for 2 minutes, and the number of foot faults (when a forelimb fell through the grid) and the total steps were recorded. % Foot fault = (the number of forelimb faults/the total number of forelimb steps) × 100.

in vivo = settings: male, SD, rat, in vivo, iv
Summary of the method: (§1)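 Male SD rats (200-230 g) given single tail-vein injections, descending doses from 480 µg/Kg to 30 µg/Kg. Toxic response, mortality and time of death recorded; acute toxicity level preliminarily set from doses without mortality.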

male SD rats = test: in vivo; settings: one animal per row, observed 24 hours
Summary of the method: as §1

[1] = intravenous (tail vein) 30 µg/Kg
[2] = intravenous (tail vein) 60 µg/Kg
[3] = intravenous (tail vein) 120 µg/Kg

hETBR agonist activity, percentage of activity relative to IRL1620 (human ETB receptor) [%@100nM]	hETBR agonist activity, percentage of activity relative to IRL1620 (human ETB receptor; @10nM) [%@10nM]	Compound	Foot fault Analysis Mean of 7D (rat model of pMACO)	Foot fault Analysis Mean of 24h (rat model of pMACO)	Foot fault Analysis Mean of Pretest (rat model of pMACO)	MTD at 24 h (in vivo) [mg/kg]	Observations of Animal Status (male SD rats; [1])	Observations of Animal Status (male SD rats; [2])	Observations of Animal Status (male SD rats; [3])	further results
93.46	125.64	Fum-DEEEVYFAHOrnDIIW [BX-59]								
121.00	145.60	Fum-DEEEVYFAHKDIIW (Fumaroyl-DEEEVYFAHKDIIW) [BX-52]								
121.58	86.20	Suc-DE cyclo(CEEC)YFAHKDIIW (Suc-DECEECYFAHKDIIW; not fully specified (bridges); printed as Suc-DE cyclo(CEEC)YFAHKDIIW; also: cyclo(CEEC) in N-terminal extension, bond type not given here) [BX-57]								

Continued, compound first:

Compound	hETBR agonist activity, percentage of activity relative to IRL1620 (human ETB receptor) [%@100nM]	hETBR agonist activity, percentage of activity relative to IRL1620 (human ETB receptor; @10nM) [%@10nM]	Foot fault Analysis Mean of 7D (rat model of pMACO)	Foot fault Analysis Mean of 24h (rat model of pMACO)	Foot fault Analysis Mean of Pretest (rat model of pMACO)	MTD at 24 h (in vivo) [mg/kg]	Observations of Animal Status (male SD rats; [1])	Observations of Animal Status (male SD rats; [2])	Observations of Animal Status (male SD rats; [3])	further results
CC[C@H](C)[C@H](NC(=O)[C@H](CC(=O)O)NC(=O)[C@H](CC(C)C)NC(=O)[C@H](Cc1c[nH]cn1)NC(=O)[C@H](C)NC(=O)[C@H](Cc1ccccc1)NC(=O)[C@H](Cc1ccc(O)cc1)NC(=O)[C@@H](NC(=O)[C@H](C)NC(=O)[C@H](CCC(=O)O)NC(=O)[C@H](CCC(=O)O)NC(=O)[C@H](CC(=O)O)NC(=O)CCC(=O)O)C(C)C)C(=O)N[C@H](C(=O)N[C@@H](Cc1c[nH]c2ccccc12)C(=O)O)[C@@H](C)CC [IRL1620, reference compound] (Suc-DEEAVYFAHLDIIW-OH)			4.3%+3.14%	14.2%±17.61%	1%±2%	0.03	Developed rapid breathing at 13 minutes, showed no willingness to move at 30 minutes; recovered at 1.5 hours; also recorded: Developed rapid breathing at 15 minutes, showed no willingness to move at 25 minutes; recovered at 1.5 hours; also recorded: Lay still at 25 minutes, showed no willingness to move at 1.5 hours; found dead the next morning (estimated to have died during the night)	Developed rapid breathing at 3 minutes; died at 8 minutes	Developed rapid breathing and the body turned purple at 5 minutes; died at 9 minutes	
CC[C@H](C)[C@H](NC(=O)[C@H](CC(=O)O)NC(=O)[C@H](CCCCNC(=O)COCCOCCNC(=O)COCCOCCNC(=O)CC[C@H](NC(=O)CCCCCCCCCCCCCCCCC(=O)O)C(=O)O)NC(=O)[C@H](Cc1c[nH]cn1)NC(=O)[C@H](C)NC(=O)[C@H](Cc1ccccc1)NC(=O)[C@H](Cc1ccc(O)cc1)NC(=O)[C@@H](NC(=O)[C@H](C)NC(=O)[C@H](CCC(=O)O)NC(=O)[C@H](CCC(=O)O)NC(=O)[C@H](CC(=O)O)NC(=O)/C=C/C(=O)O)C(C)C)C(=O)N[C@H](C(=O)N[C@@H](Cc1c[nH]c2ccccc12)C(=O)O)[C@@H](C)CC [BX-34] (Fumaroyl-DEEAVYFAHK([AEEA-AEEA-γGlu-C18 diacid])DIIW-OH)			3.46%±2.92%	10.64%±15.53%	1%±1%					percentages of foot faults compared with the saline group and the IRL1620 group (rat model of pMACO; pMACO rats, BX-34 7 µg/Kg, BX-48 5 µg/Kg, three administrations): lower
CCCCCCCCCCCC(=O)N[C@@H](CCC(=O)NCCOCCOCC(=O)NCCCC[C@H](NC(=O)[C@H](Cc1c[nH]cn1)NC(=O)[C@H](C)NC(=O)[C@H](Cc1ccccc1)NC(=O)[C@H](Cc1ccc(O)cc1)NC(=O)[C@@H](NC(=O)[C@H](C)NC(=O)[C@H](CCC(=O)O)NC(=O)[C@H](CCC(=O)O)NC(=O)[C@H](CC(=O)O)NC(=O)/C=C/C(=O)O)C(C)C)C(=O)N[C@@H](CC(=O)O)C(=O)N[C@H](C(=O)N[C@H](C(=O)N[C@@H](Cc1c[nH]c2ccccc12)C(=O)O)[C@@H](C)CC)[C@@H](C)CC)C(=O)O [BX-225] (Fumaroyl-DEEAVYFAHK([AEEA-γGlu-Lauroyl])DIIW-OH)						0.03	No obvious abnormalities observed within 24 hours	Lay still and showed no willingness to move at 7 minutes; became active at 10 minutes; signs of pain were observed in the animal through pupil observation; no pain at 23 minutes; also recorded: Lay still and showed no willingness to move at 7 minutes; became active at 10 minutes; signs of pain were observed in the animal through pupil observation; developed rapid breathing at 35 minutes; died at 70 minutes	Breathing became slightly faster at 2 minutes, showed no willingness to move, had slow reactions, and breathing speeded up at 25 minutes; the symptoms basically eased at 1.5 hours; also recorded: Showed no willingness to move, had slow reactions, and breathing became slightly faster at 10 minutes; the symptoms lasted for nearly 1 hour; the symptoms basically eased at 1 hour and 10 minutes; also recorded: Developed abdominal breathing and lay still at 27 minutes; died of difficulty in breathing at 40 minutes; also recorded: Developed abdominal breathing and lay still at 25 minutes; died of difficulty in breathing at 32 minutes	Observations of Animal Status (male SD rats; intravenous (tail vein) 240 µg/Kg): Developed rapid breathing at 4 minutes, collapsed at 5 minutes, eyes turned dull at 7 minutes; died at 12 minutes
